Columns and labels:
[1] = Dissolving DEET with the composition of the invention (Example 3, general procedure); type: physicochemical; conditions: composition of Table 3
Procedure: A general procedure to prepare the solution of an active compound in the composition of the invention is applied: • Deionized water was brought in a beaker equipped with a stirring bar and placed on a stirring plate. The cosolvent was added to the solution whilst stirring. Subsequently, the surfactant was added, and before the surfactant was dissolved also icaridin was added. Stirring is stopped when all components of the composition are dissolved.
The same test was applied to determine if the composition of the invention is also able to dissolve alternative water-insoluble compounds. In this experiment icaridin was switched for DEET and the general procedure was applied.

[2] = Dissolving icaridin in water with individual components only (Example 2, visual result); type: physicochemical; conditions: icaridin 5.0 wt.%
Procedure: In this experiment, it is tested if the combination of the cosolvent and the surfactant is required to dissolve icaridin or if individual components can also dissolve icaridin in water.
Deionized water was brought in a beaker equipped with a stirring bar and placed on a stirring plate. The (when applicable) cosolvent was added to the solution whilst stirring. Subsequently (when applicable) the surfactant was added, before this dissolved also (when applicable) icaridin was added. Stirring is stopped when everything is dissolved.

| SMILES | Amount dissolved in water by the composition of the invention [1] [wt. %] | Solubility of icaridin in water (conclusion from Table 2) [2] |
| --- | --- | --- |
| CCN(CC)C(=O)c1cccc(C)c1 [DEET, N,N-diethyl-m-toluamide] | 5 | – |
| CCC(C)OC(=O)N1CCCCC1CCO (centres unmarked) [icaridin] | – | only soluble in water using the combination cosolvent and surfactants |

— US20260026506A1, “COMPOSITION FOR DISSOLVING AN OILY COMPOUND IN WATER” (AFFIX LABS OY, priority 2022, published 2026)
